The conditions of data set [1]: Crystal; DSC.
The nature of data set [2]: Molar enthalpy of transition or fusion. Particulars: Crystal; DSC.
Data set [3] can be described thus: refractive index (Na D-line) (dimensionless). Particulars: 293.15 K; 101.33 kPa; Liquid; Standard Abbe refractometry.

± gives the expanded uncertainty stated by the source.

By refractive index is commonly meant a measure of how strongly the sample bends light.

`O=C(O)c1ccccc1` [benzoic acid]: the Triple point temperature in data set [1] is on record as 396.8 ± 1 K. Also, the “Molar enthalpy of transition or fusion” value in data set [2] turned out to be 4.19 ± 0.43 kcal/mol.

Regarding `CCCO` [propan-1-ol], in data set [3], the refractive index was determined as 1.3852 ± 0.001.

For `CN(C)C=O` [dimethylformamide], the refractive index in data set [3] stood at 1.4303 ± 0.001.

On to `C[C@@H](c1ncncc1F)[C@](O)(Cn1cncn1)c1ccc(F)cc1F` [voriconazole], for which, in data set [1], the Triple point temperature came out at 403.4 ± 1 K. Moreover, the “Molar enthalpy of transition or fusion” value in data set [2] is 6.43 ± 0.645 kcal/mol.

For `CC[C@@H]([C@H](C)O)n1ncn(-c2ccc(N3CCN(c4ccc(OC[C@@H]5CO[C@@](Cn6cncn6)(c6ccc(F)cc6F)C5)cc4)CC3)cc2)c1=O` [posaconazole], the Triple point temperature in data set [1] came out at 444.6 ± 1 K. In data set [2], the “Molar enthalpy of transition or fusion” value is 11.4 ± 1.17 kcal/mol.

`CCC(C)=O` [butanone]: the refractive index in data set [3] is 1.379 ± 0.0011.

Take `CCCCO` [butan-1-ol]: the refractive index in data set [3] was found to be 1.3986 ± 0.0011.

Take `CCCC(C)=O` [pentan-2-one]: in data set [3], the refractive index is 1.3892 ± 0.0011.

Regarding `C[S+](C)[O-]` [dimethyl sulfoxide], the refractive index in data set [3] is 1.4791 ± 0.0011.

With `CC(C)O` [propan-2-ol], in data set [3], the refractive index was found to be 1.3774 ± 0.0011.

As to `O` [water], in data set [3], the refractive index came to 1.3331 ± 0.001.

`CC(C)CO` [2-methyl-1-propanol]: the refractive index in data set [3] was determined as 1.3957 ± 0.0011.

As to `CCO` [ethanol], the refractive index in data set [3] amounted to 1.3613 ± 0.0011.

These data come from the NIST ThermoML archive (doi:10.1021/acs.jced.9b00179).
